Experimental data published in patent US10131652B2, “Pyrimidinyloxy benzene derivatives as herbicides” (E. I. DU PONT DE NEMOURS AND COMPANY, priority 2014, dated 2018).
Like-named read-outs stand apart in the source and are kept apart here.

Experiments:
Assay in all cases: Test E pre-/postemergence plant response
Type in all cases: in vivo
[1] = tested on: windgrass (Apera spica-venti); conditions: scale 0 to 100, read-out: Plant response rating, Windgrass; for pest or weed control at 16 g/ha: 16 g ai/ha; for pest or weed control at 62 g/ha: 62 g ai/ha; for pest or weed control at 125 g/ha: 125 g ai/ha
In short: (§1)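 Visual scores on a 0–100 scale (100 = complete control) were assigned against untreated controls 7–21 days after treatment in a controlled environment. Compounds, formulated with solvent plus surfactant, were applied to pre-emergence silt-loam sowings or to 1- to 4-leaf plants (2–18 cm) in potting medium.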

[2] = tested on: field poppy (Papaver rhoeas); conditions: scale 0 to 100, read-out: Plant response rating, Field Poppy; for pest or weed control at 16 g/ha: 16 g ai/ha; for pest or weed control at 31 g/ha: 31 g ai/ha; for pest or weed control at 62 g/ha: 62 g ai/ha; for pest or weed control at 125 g/ha: 125 g ai/ha
In short: as §1

[3] = tested on: canarygrass (Phalaris minor); conditions: scale 0 to 100, read-out: Plant response rating, Canarygrass; for pest or weed control at 16 g/ha: 16 g ai/ha; for pest or weed control at 31 g/ha: 31 g ai/ha; for pest or weed control at 62 g/ha: 62 g ai/ha; for pest or weed control at 125 g/ha: 125 g ai/ha
In short: as §1

[4] = tested on: spring barley (Hordeum vulgare); conditions: for plant injury at 16 g/ha: 16 g ai/ha; for plant injury at 31 g/ha: 31 g ai/ha; for plant injury at 62 g/ha: 62 g ai/ha; for plant injury at 125 g/ha: 125 g ai/ha
In short: as §1

[5] = tested on: winter barley (Hordeum vulgare); conditions: scale 0 to 100, read-out: Plant response rating, Barley, Winter; for plant injury at 16 g/ha: 16 g ai/ha; for plant injury at 31 g/ha: 31 g ai/ha; for plant injury at 62 g/ha: 62 g ai/ha; for plant injury at 125 g/ha: 125 g ai/ha
In short: as §1

[6] = tested on: downy bromegrass (Bromus tectorum); conditions: scale 0 to 100, read-out: Plant response rating, Bromegrass, Downy; for pest or weed control at 16 g/ha: 16 g ai/ha; for pest or weed control at 31 g/ha: 31 g ai/ha; for pest or weed control at 62 g/ha: 62 g ai/ha; for pest or weed control at 125 g/ha: 125 g ai/ha
In short: as §1

[7] = tested on: speedwell (bird's-eye speedwell, Veronica persica); conditions: scale 0 to 100, read-out: Plant response rating, Speedwell; for pest or weed control at 16 g/ha: 16 g ai/ha; for pest or weed control at 62 g/ha: 62 g ai/ha; for pest or weed control at 125 g/ha: 125 g ai/ha
In short: as §1

[8] = tested on: pigweed (Amaranthus retroflexus); conditions: scale 0 to 100, read-out: Plant response rating, Pigweed; for pest or weed control at 16 g/ha: 16 g ai/ha; for pest or weed control at 31 g/ha: 31 g ai/ha; for pest or weed control at 62 g/ha: 62 g ai/ha; for pest or weed control at 125 g/ha: 125 g ai/ha
In short: as §1

kochia (Kochia scoparia) = conditions: Bassia scoparia, scale 0 to 100, read-out: Plant response rating, Kochia; for pest or weed control at 16 g/ha: 16 g ai/ha; for pest or weed control at 31 g/ha: 31 g ai/ha; for pest or weed control at 62 g/ha: 62 g ai/ha; for pest or weed control at 125 g/ha: 125 g ai/ha
In short: as §1

[9] = tested on: chickweed (common chickweed, Stellaria media); conditions: scale 0 to 100, read-out: Plant response rating, Chickweed; for pest or weed control at 16 g/ha: 16 g ai/ha; for pest or weed control at 31 g/ha: 31 g ai/ha; for pest or weed control at 62 g/ha: 62 g ai/ha; for pest or weed control at 125 g/ha: 125 g ai/ha
In short: as §1

[10] = tested on: wild buckwheat (Polygonum convolvulus); conditions: Fallopia convolvulus, scale 0 to 100, read-out: Plant response rating, Buckwheat, Wild; for pest or weed control at 16 g/ha: 16 g ai/ha; for pest or weed control at 31 g/ha: 31 g ai/ha; for pest or weed control at 62 g/ha: 62 g ai/ha; for pest or weed control at 125 g/ha: 125 g ai/ha
In short: as §1

[11] = post-emergence, 31 g ai/ha, Postemergence
[12] = post-emergence, Postemergence, scale 0 to 100, read-out: Plant response rating, Barley, Spring
[13] = pre-emergence, Preemergence, scale 0 to 100, read-out: Plant response rating, Barley, Spring

## Fc1cccc(Oc2ncc(Cl)cn2)c1-c1cc(C(F)F)no1 [Compound 144, 5-chloro-2-[2-[3-(difluoromethyl)-5-isoxazolyl]-3-fluorophenoxy]pyrimidine]
[1]; post-emergence, Postemergence
  pest or weed control at 16 g/ha: 10%
  pest or weed control at 62 g/ha: 25%
  pest or weed control at 125 g/ha: 55%
[1]; [11]
  pest or weed control at 31 g/ha: 20%
[1]; pre-emergence, Preemergence
  pest or weed control at 16 g/ha: 10%
  pest or weed control at 62 g/ha: 100%
  pest or weed control at 125 g/ha: 100%
[2]; post-emergence, Postemergence
  pest or weed control at 16 g/ha: 100%
  pest or weed control at 31 g/ha: 100%
  pest or weed control at 62 g/ha: 100%
  pest or weed control at 125 g/ha: 100%
[2]; pre-emergence, Preemergence
  pest or weed control at 16 g/ha: 100%
  pest or weed control at 31 g/ha: 100%
  pest or weed control at 62 g/ha: 100%
  pest or weed control at 125 g/ha: 100%
[3]; post-emergence, Postemergence
  pest or weed control at 16 g/ha: 35%
  pest or weed control at 31 g/ha: 60%
  pest or weed control at 62 g/ha: 65%
  pest or weed control at 125 g/ha: 85%
[3]; pre-emergence, Preemergence
  pest or weed control at 16 g/ha: 35%
  pest or weed control at 31 g/ha: 80%
  pest or weed control at 62 g/ha: 100%
  pest or weed control at 125 g/ha: 100%
[4]; [12]
  plant injury at 16 g/ha: 15%
  plant injury at 31 g/ha: 25%
  plant injury at 62 g/ha: 35%
[4]; post-emergence, Postemergence, scale 0 to 100 (0 no effect, 100 complete control), read-out: Plant response rating, Barley, Spring
  plant injury at 125 g/ha: 45%
[4]; [13]
  plant injury at 16 g/ha: 10%
  plant injury at 31 g/ha: 25%
  plant injury at 62 g/ha: 45%
  plant injury at 125 g/ha: 65%
[5]; post-emergence, Postemergence
  plant injury at 16 g/ha: 30%
  plant injury at 31 g/ha: 20%
  plant injury at 62 g/ha: 35%
  plant injury at 125 g/ha: 45%
[5]; pre-emergence, Preemergence
  plant injury at 16 g/ha: 30%
  plant injury at 31 g/ha: 35%
  plant injury at 62 g/ha: 55%
  plant injury at 125 g/ha: 55%
[6]; post-emergence, Postemergence
  pest or weed control at 16 g/ha: 25%
  pest or weed control at 31 g/ha: 35%
  pest or weed control at 62 g/ha: 40%
  pest or weed control at 125 g/ha: 75%
[6]; pre-emergence, Preemergence
  pest or weed control at 16 g/ha: 10%
  pest or weed control at 31 g/ha: 10%
  pest or weed control at 62 g/ha: 35%
  pest or weed control at 125 g/ha: 55%
[7]; post-emergence, Postemergence
  pest or weed control at 16 g/ha: 100%
  pest or weed control at 62 g/ha: 100%
  pest or weed control at 125 g/ha: 100%
[7]; [11]
  pest or weed control at 31 g/ha: 100%
[7]; pre-emergence, Preemergence
  pest or weed control at 16 g/ha: 100%
  pest or weed control at 62 g/ha: 100%
  pest or weed control at 125 g/ha: 100%
[8]; post-emergence, Postemergence
  pest or weed control at 16 g/ha: 98%
  pest or weed control at 31 g/ha: 100%
  pest or weed control at 62 g/ha: 100%
  pest or weed control at 125 g/ha: 100%
[8]; pre-emergence, Preemergence
  pest or weed control at 16 g/ha: 100%
  pest or weed control at 31 g/ha: 100%
  pest or weed control at 62 g/ha: 100%
  pest or weed control at 125 g/ha: 100%
Kochia (Kochia scoparia); post-emergence, Postemergence
  pest or weed control at 16 g/ha: 100%
  pest or weed control at 31 g/ha: 100%
  pest or weed control at 62 g/ha: 100%
  pest or weed control at 125 g/ha: 100%
Kochia (Kochia scoparia); pre-emergence, Preemergence
  pest or weed control at 16 g/ha: 98%
  pest or weed control at 31 g/ha: 100%
  pest or weed control at 62 g/ha: 100%
  pest or weed control at 125 g/ha: 100%
[9]; post-emergence, Postemergence
  pest or weed control at 16 g/ha: 85%
  pest or weed control at 31 g/ha: 100%
  pest or weed control at 62 g/ha: 100%
  pest or weed control at 125 g/ha: 100%
[9]; pre-emergence, Preemergence
  pest or weed control at 16 g/ha: 100%
  pest or weed control at 31 g/ha: 100%
  pest or weed control at 62 g/ha: 100%
  pest or weed control at 125 g/ha: 100%
[10]; post-emergence, Postemergence
  pest or weed control at 16 g/ha: 100%
  pest or weed control at 31 g/ha: 95%
  pest or weed control at 62 g/ha: 100%
  pest or weed control at 125 g/ha: 100%
[10]; pre-emergence, Preemergence
  pest or weed control at 16 g/ha: 85%
  pest or weed control at 31 g/ha: 100%
  pest or weed control at 62 g/ha: 100%
  pest or weed control at 125 g/ha: 100%
